Measured values published in US20100137315A1, “Sphingosine Kinase Inhibitors and Methods of Their Use” (APOGEE BIOTECHNOLOGY CORPORATION, priority 2005, published 2010).
Where two headings read alike, the source gives them in different places.

Assays:
[1] = test system: MCF-7 human breast adenocarcinoma cells; test: Cytotoxicity, SRB assay, 48 h; type: cell-based; details: Homo sapiens, MCF7
Experimental: (§1) To further assess the biological efficacies of the Compounds in intact cells, each Compound was evaluated for cytotoxicity using human cancer cell lines. These experiments followed methods that have been extensively used. Cell lines tested included MCF-7 human breast adenocarcinoma cells. The indicated cell lines were treated with varying doses of the test Compound for 48 h. Cell survival was then determined using the SRB binding assay (Skehan et al., 1990, J Natl Cancer Inst 82: 1107), and the concentration of compound that inhibited proliferation by 50% (the IC50) was calculated. Values (in μM) represent the mean±sd for replicate trials.

[2] = test system: Caco-2 (colon); test: Cytotoxicity, sulforhodamine B, 48 h; type: cell-based; details: Homo sapiens, mean ± sd
[3] = test system: Hep-G2 (liver); test: Cytotoxicity, sulforhodamine B, 48 h; type: cell-based; details: Homo sapiens, HepG2, mean ± sd
[4] = test system: 1025LU (Melanoma); test: Cytotoxicity, sulforhodamine B, 48 h; type: cell-based; details: Homo sapiens, mean ± sd
Experimental: as §1

[5] = test system: A-498 (Kidney); test: Cytotoxicity, sulforhodamine B, 48 h; type: cell-based; details: Homo sapiens, A498, mean ± sd
Experimental: as §1

[6] = test system: DU145 (prostate); test: Cytotoxicity, sulforhodamine B, 48 h; type: cell-based; details: Homo sapiens, DU-145, mean ± sd
Experimental: as §1

[7] = test system: HT-29 (colon); test: Cytotoxicity, sulforhodamine B, 48 h; type: cell-based; details: Homo sapiens, mean ± sd
Experimental: as §1

[8] = test system: MDA-MB-231 (breast, ER−); test: Cytotoxicity, sulforhodamine B, 48 h; type: cell-based; details: Homo sapiens, mean ± sd
Experimental: as §1

[9] = test system: SK-OV-3 (ovary); test: Cytotoxicity, sulforhodamine B, 48 h; type: cell-based; details: Homo sapiens, mean ± sd
Experimental: as §1

[10] = test system: Panc-1 (pancreas); test: Cytotoxicity, sulforhodamine B, 48 h; type: cell-based; details: Homo sapiens, mean ± sd
[11] = test system: T24 (bladder); test: Cytotoxicity, sulforhodamine B, 48 h; type: cell-based; details: Homo sapiens, mean ± sd
[12] = physchem; type: physicochemical; details: aqueous with cosolvent or surfactant or cyclodextrin, in DMSO: PBS (IP) or PEG400 (oral)
[13] = test system: female Swiss-Webster mice; test: In vivo toxicity in mice; details: orally up to at least 100 mg/kg
[14] = Oral pharmacokinetics in mice; type: in vivo; details: mouse, whole blood; for AUC(0-inf): 100 mg/kg oral gavage in PEG400, female Swiss-Webster mice, blood
Experimental: Oral pharmacokinetic studies were performed on Compound 8. The compound was dissolved in PEG400 and administered to female Swiss-Webster mice at a dose of 100 mg/kg by oral gavage. Mice were anesthetized and blood was removed via cardiac puncture at 5 minutes, 30 minutes, 1, 2, and 8 hours. Concentrations of the test compounds were determined using liquid-liquid extraction, appropriate internal standards and reverse phase HPLC with UV detection. Control blood samples were run to identify compound-specific peaks. Pharmacokinetic parameters were calculated using the WINNONLIN analysis software package (Pharsight). Non-compartmental and compartmental models were tested, with the results shown in Table 8 derived from the best fit equations.

[15] = test system: JC murine adenocarcinoma cells in Balb/c mice; test: JC mammary adenocarcinoma syngeneic tumor model; type: in vivo; details: for inhibition of tumor growth relative to controls: 50 mg/kg IP every-other day, Balb/c mice; for In vivo activity: JC tumor model, intraperitoneal (ip) or oral (po)
Experimental: FIG. 1. Inhibition of tumor growth by SK inhibitors. Balb/c female mice were injected subcutaneously with JC murine adenocarcinoma cells suspended in PBS. After palpable tumor growth, animals were treated by intraperitoneal injection of either 0.1 mL of 50% DMSO (control, circles) or 50 mg/kg of Compound 8 (squares) or Compound 73 (triangles) on odd numbered days. Whole body weight and tumor volume measurement were performed for up to 18 days. * p<0.05. Inset: Averaged body weights of mice from each group during course of study.
FIG. 2. Dose-response relationships for inhibition of tumor growth by Compound 8. Balb/c female mice were injected subcutaneously with JC cells suspended in PBS. After palpable tumor growth, animals were treated by oral gavage of either 100 μl of PEG400 (control, circles) or Compound 8 at 3.5 mg/kg (diamonds), 10 mg/kg (inverted triangles), 35 mg/kg (triangles) or 100 mg/kg (squares) on odd numbered days. Whole body weight and tumor volume measurement were performed for up to 18 days.
The SK inhibitors Compounds 8 and 73 were dissolved in 50% DMSO and administered by intraperitoneal injection to mice every-other day at a dose of 50 mg/kg. Body weights and tumor volumes were monitored daily.

[16] = test system: IEC6 rat intestinal epithelial cells; test: TNFα-induced PGE2 production (Cox-2 activity), ELISA; type: cell-based; details: 100 ng TNFα/mL, 18 hours, 10 μg/mL compound
Experimental: (§2) FIG. 3. Inhibition of TNFα-induced Cox-2 activity by Compound 8. Rat IEC6 cells (Panel A) or human endothelial cells (Panel B) were incubated for 18 hours with dimethylsulfoxide (DMSO) as a solvent control, or 100 ng of TNFα/mL in the presence of DMSO or 10 μg/mL of Compound 8. Levels of PGE2 secreted into the medium were quantified by ELISA. Values represent the mean±sd for triplicate samples in a typical experiment.
(§3) To determine the effects of the SK inhibitors on Cox-2 activity, an ELISA assay was used to measure PGE2 production by IEC6 rat intestinal epithelial cells and human endothelial cells treated with TNFα.

[17] = test system: human endothelial cells; test: as above; type: cell-based; details: 100 ng TNFα/mL, 18 hours, 10 μg/mL compound
Experimental: as §2, §3

[18] = Table 6, 48 h, SRB, inhibition of cell proliferation, read-out: MCF-7 IC50
[19] = Table 7, 48 hours, mean ± sd, read-out: IC50 (μM) MCF-7
[20] = female, Swiss-Webster, 100 mg/kg oral gavage, mice

Q: Which IC50 [1, 18] does the source give for `CCCC(=O)Oc1ccc(C=CC(=O)Nc2nc(-c3ccc(Cl)cc3)cs2)cc1OC` [Compound 8, Butyric acid 4-{2-[4-(4-chloro-phenyl)-thiazol-2-ylcarbamoyl]-vinyl}-2-methoxy-phenyl ester] here?
A: 6.6 µM

Q: And the IC50 [1, 19]?
A: 25.2 ± 4.7 µM

Q: What about the IC50 [2] of the same compound?
A: 2.6 ± 1.2 µM

Q: What about the IC50 [3] of the same compound?
A: 81.5 ± 38.9 µM

Q: What about the IC50 [4] of the same compound?
A: 30.1 ± 3.9 µM

Q: What about the IC50 [5] of the same compound?
A: 38.3 ± 7.7 µM

Q: What about the IC50 [6] of the same compound?
A: 21.2 ± 1.3 µM

Q: What about the IC50 [7] of the same compound?
A: 54.7 ± 0.1 µM

Q: What about the IC50 [8] of the same compound?
A: 30.1 ± 3.9 µM

Q: What about the IC50 [9] of the same compound?
A: 23.7 ± 3.2 µM

Q: And the IC50 [10]?
A: 19 ± 2.5 µM

Q: What about the IC50 [11] of the same compound?
A: 25.2 ± 2.9 µM

Q: What about the solubility ([12]; read-out: solubility) of the same compound?
A: ≥ 15 mg/mL

Q: And the solubility ([12]; read-out: solubility (molar))?
A: 30 to 40 mM

Q: What about the “toxicity, oral administration” value [13] of the same compound?
A: without noticeable toxicity

Q: And the Cmax [14, 20]?
A: 34.4 µM

Q: What about the Tmax [14, 20] of the same compound?
A: 1 h

Q: And the half-life [14, 20]?
A: 31.9 h

Q: And the AUC(0-inf) ([14]; read-out: AUC0 → ∞ (μM*h))?
A: 1500 µM·h

Q: What about the AUC(0-inf) ([14]; read-out: AUC0 → ∞ (μg*h/mL)) of the same compound?
A: 475 µg·h/mL

Q: What about the “inhibition of tumor growth relative to controls” value [15] of the same compound?
A: 66%

Q: What about the In vivo activity [15] of the same compound?
A: active - ip and po

Q: What about the “oral doses with antitumor activity” value ([15]; oral gavage 3.5-100 mg/kg on odd numbered days) of the same compound?
A: ≥ 10 mg/kg

Q: And the “toxicity to the mice in the dose-response study” value ([15]; oral, any dose (3.5-100 mg/kg))?
A: No toxicity

Q: And the “TNFα-induced Cox-2 activity (PGE2 production)” value [16]?
A: strongly suppressed

Q: What about the “TNFα-induced Cox-2 activity (PGE2 production)” value [17] of the same compound?
A: strongly suppressed

Q: With `Clc1ccc(-c2csc(NCc3ccccc3)n2)cc1` [Compound 73, Benzyl-[4-(4-chloro-phenyl)-thiazol-2-yl]-amine] as the compound, how does the IC50 [1, 18] read?
A: 8.3 µM

Q: And the IC50 [1, 19]?
A: 1.8 ± 0.7 µM

Q: And the IC50 [2]?
A: 6.3 ± 5.2 µM

Q: What about the IC50 [3] of the same compound?
A: 13.8 ± 8.7 µM

Q: What about the IC50 [4] of the same compound?
A: 8.3 ± 2.4 µM

Q: And the IC50 [5]?
A: 4 ± 1.9 µM

Q: What about the IC50 [6] of the same compound?
A: 6.5 ± 3.6 µM

Q: And the IC50 [7]?
A: 29.9 ± 9.4 µM

Q: And the IC50 [8]?
A: 26.6 ± 6.7 µM

Q: And the IC50 [9]?
A: 10.2 ± 0.3 µM

Q: What about the IC50 [10] of the same compound?
A: 6.7 ± 2.4 µM

Q: And the IC50 [11]?
A: 22.7 ± 4.8 µM

Q: What about the solubility ([12]; read-out: solubility) of the same compound?
A: ≥ 15 mg/mL

Q: And the solubility ([12]; read-out: solubility (molar))?
A: 30 to 40 mM

Q: And the “toxicity, oral administration” value [13]?
A: without noticeable toxicity

Q: And the “inhibition of tumor growth relative to controls” value [15]?
A: 69%

Q: And the In vivo activity [15]?
A: active - ip
